Data published in patent US5728684A, “Determination of prodrugs metabolizable by the liver and therapeutic use thereof” (priority 1994, dated 1998).
Entries after “also recorded” stand apart in the source; their conditions may differ.

Assays:
[1] = test system: mixed function oxidase system; assay: IPdR oxidation by mixed function oxidase system from rat liver microsomes; assay type: in vitro ADME; settings: with or without NADPH
Text: (§1) In order to determine which enzyme is responsible for the catalysts of this IPdR oxidation, a series of known oxido-reductases which have similar capability to oxidize a carbon atom with an adjacent amino group into a carbonyl functionality were explored for their ability to catalyze IPdR oxidation. […] A mixed function oxidase system prepared from the microsome of rat liver a broad spectrum of substrates and is NADPH dependent. […] Alcohol dehydrogenase (which can be obtained from Sigma) and alcohol oxidase (which can be obtained from Sigma) both reside in the soluble fraction of liver cell extracts, but the conversion of IPdR to […] was not detected with purified preparation of either enzyme under the same conditions that they converted their natural substrates effectively. […]

[2] = test system: thymidine phosphorylase; settings: cited from earlier work
[3] = test system: HSV-2; settings: Lewandowski et al. 1989; cited from earlier work
[4] = test system: aldehyde oxidase; assay: Michaelis constant / Vmax of 2-pyrimidinone deoxyribose analogs with the liver enzyme; assay type: biochemical, rat; settings: pH 7.5 versus pH 9.5
Method: (§2) Rat hepatic tissue was washed with ice-cold 1.15% KCl and blotted dry. The tissue was then homogenized with a tissue homogenizer, in a volume of 1.15% KCl that was 3 times the tissue weight, to form a 25% (w/v) homogenate. The homogenate was then centrifuged at 10,000 g for 10 minutes at 4° C. The resulting supernatant was filtered through Miracloth (similar to cheese cloth) then dialyzed overnight against 50 mM Tris-HCl buffer pH 7.5 and stored at -80° C. before use. Rat hepatocytes were obtained by a perfusion technique then the cells were extracted with 10 mM phosphate buffer, pH 7.5, containing 1M KCl and dialyzed for 4 hours against 50 mM Tris-HCl buffer pH 7.5.
(§3) For the standard assay condition, the reaction mixture contained 50 mM Tris-HCl, pH 7.5, 1 mM EDTA, 180 μM of IPdR (or its analogs) and approximately 0.01 mg protein of 10,000 g supernatant of tissue homogenate in a final volume of 500 μl and the incubation was at 37° C. for 10 minutes unless specified otherwise. 300 μl of reaction mixture was removed at the end of incubation and mixed with 630 μl acetonitrile then agitated. The precipitated protein were removed by centrifugation and the supernatant was lyophilized to dryness. The samples were reconstituted to the original aliquot volume with the HPLC mobile phase buffer and analyzed on a Alltech RP-18 column. IPdR, IUdR and IU were detected at a UV absorption wavelength of 230 nm, and IPdR was also detected at a UV absorption wavelength of 335 nm. The mobile phase was 10% acetonitrile/90%mM ammonium acetate, pH 6.8 and the flow rate was 1 ml/minute. Standard curves of IPdR and IUdR were established from the integration value of known concentrations.
Several 2-pyrimidinone deoxyribose analogs were examined for the conversion to their deoxyuridine counterparts. […] Nevertheless the relative Vmax for IPdR in the reaction at pH 7.5 and pH 9.5 is the same. […] The synthetic substrates for aldehyde oxidase appear to be better than its natural substrates, N^1 -methylnicotinamide and acetaldehyde, as judged by the potency of inhibition of N^1 -methylnicotinamide and acetaldehyde to the IPdR oxidation reaction (Table IV). The rate of reactivity of the liver enzyme with different IPdR analogs follows the order EPdR, IP, IPdR, 5-bromo-2-pyrimidinone deoxyribose (BPdR) and 5-methyl-2-pyrimidinone deoxyribose (MPdR) or 5-ethyl-2-pyrimidinone deoxyribose (EtPdR) (Table V). Electronegative substituents in the 5-position seemed to increase the substrate activity in this oxidation reaction.

[5] = test system: bone marrow, gut and liver tissue; assay: Thymidine replacement in tissues of athymic nude mice; assay type: in vivo
Method: Mice were administered daily oral dosages of 0, 100, 250 and 500 mg/kg. Percent dThd replacement as indicative of IPdR incorporation into bone marrow, gut and liver tissue was assayed according to known methods. […] Results presented in FIG. 6 are mean percent thymidine replacement ± one standard error of the mean. N is greater or equal to 3 for each dose.

[6] = test system: IPdR oxidase; assay: IUdR synthesis by partially purified IPdR oxidase; assay type: biochemical; settings: 37° C., rat liver enzyme purified 380 fold
Method: (§4) Differential fractionation centrifugation was used in an attempt to localize this IPdR conversion enzyme activity in the liver homogenate. The enzyme activity assay was performed on each fraction. […] Further purification was achieved by use of DEAE cellulose column chromatography, blue Sepharose column chromatography and glycerol gradient centrifugation in this order. This IPdR oxidase activity was purified 380 fold starting from the crude extracts of rat liver. The partially purified enzyme catalyzed IUdR synthesis at a rate of 3.8 μmoles per minute per milligram of protein at 37° C. under these conditions. The apparent molecular weight of this enzyme in both rats and humans as determined by centrifugation on a 20 to 40% glycerol gradient is approximately 280,000 dalton. Neither cofactor nor divalent cations requirement has been found for the rat liver enzyme or the human liver enzyme.

[7] = test system: mice; settings: oral, at the dosage employed; cited from earlier work
[8] = test system: IPdR oxidase; assay: Conversion of IPdR to IUdR by cell extracts (rat tissues); assay type: in vitro ADME
Method: as §2, §3, §4
Tissue specificity of the conversion of IPdR

[9] = test system: Sarcosine oxidase; assay: IPdR oxidation by sarcosine oxidase; assay type: biochemical
Text: as §1

[10] = test system: IPdR oxidase; assay: Conversion of IPdR to IUdR by cell extracts (human liver); assay type: in vitro ADME; settings: 3 samples
Method: as §2
as §3, with “The precipitated protein were removed by centrifugation and the supernatant was lyophilized to dryness.” left out, “The mobile phase was 10% acetonitrile/90%mM ammonium acetate, pH 6.8 and the flow rate was 1 ml/minute. Standard curves of IPdR and IUdR were established from the integration value of known concentrations.” left out

[11] = test system: alcohol oxidase; assay: IPdR conversion by alcohol oxidase; assay type: biochemical; settings: purified preparation
Text: as §1

[12] = test system: HSV-2; settings: Lewandowski et al. 1989; cited from earlier work; remark: listed apart in the source

Compound: O=c1ncc(I)cn1[C@H]1C[C@H](O)[C@@H](CO)O1 [IPdR, 1-(2-deoxy-β-D-ribofuranosyl)-5-(iodo)-2-pyrimidinone]
- IPdR oxidase activity of rat liver microsomal fraction [1]: no IPdR oxidase activity
- substrate for thymidine phosphorylase [2]: not substrates for thymidine phosphorylase
- activity against HSV-2 in cell culture [3]: potent activity
- relative Vmax [4]: the same
- incorporation of IUdR into liver ([5]; oral, 100, 250, 500 mg/kg daily): No incorporation of IUdR into liver was found
- percent thymidine replacement in bone marrow and gut ([5]; oral, 100, 250, 500 mg/kg daily (FIG. 6)): relatively low; also recorded: relatively small amounts
- rate of IUdR synthesis by partially purified enzyme [6]: 3.8 μmoles per minute per milligram of protein
- toxicity to mice [7]: not toxic
- IPdR oxidase specific activity of hepatocyte extracts ([8]; compared with whole liver extract): very similar specific activity
- Specific activity of the conversion of IPdR to IUdR ([8]; hepatocyte (rat), 3 samples): 5-11 n mole/mg protein/min
- Specific activity of the conversion of IPdR to IUdR ([8]; intestine (rat), 3 samples, conversion not detected): < 0.02 n mole/mg protein/min
- Specific activity of the conversion of IPdR to IUdR ([8]; kidney (rat), 3 samples): 0.8-1.6 n mole/mg protein/min
- Specific activity of the conversion of IPdR to IUdR ([8]; liver (rat), 5 samples): 5-15 n mole/mg protein/min
- Specific activity of the conversion of IPdR to IUdR ([8]; lung (rat), 3 samples, conversion not detected): < 0.02 n mole/mg protein/min
- IPdR oxidase activity in extracts of kidney and spleen ([8]; rat kidney and spleen extracts, compared with liver): much less active
- IPdR oxidase activity in lung or intestine extracts ([8]; rat lung or intestine extracts): cannot be detected
- Specific activity of the conversion of IPdR to IUdR ([8]; spleen (rat), 3 samples): 0.2-0.5 n mole/mg protein/min
- IPdR oxidase activity of sarcosine oxidase [9]: no IPdR oxidase activity
- Specific activity of the conversion of IPdR to IUdR [10]: 2-7 n mole/mg protein/min
- conversion of IPdR by alcohol oxidase [11]: not detected
- activity against HSV-2 in mice [12]: potent activity
